Reference: PMC6274251, “Design, Synthesis and Biological Evaluation of Stilbene Derivatives as Novel Inhibitors of Protein Tyrosine Phosphatase 1B” (Molecules, 2016)
Entries after “also recorded” stand apart in the source; their conditions may differ. Like-named read-outs stand apart in the source and are kept apart here.

Assays:
[1] = target: T1, GST-PTP1B (Homo sapiens, UniProt P18031); assay: Colorimetric pNPP assay of inhibition against PTP1B; assay type: biochemical; details: for IC50: means ± SD of three replications, pNPP substrate, pH 6.5, 30 °C; for TCPTP/PTP1B, the ratio of IC50 of TCPTP and PTP1B: selectivity over TCPTP;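 on all read-outs here: colorimetric inhibition readout run in 96-well plates, with PTP1B and TCPTP both tested in the same assay format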
T1 sequence (P18031 1-435): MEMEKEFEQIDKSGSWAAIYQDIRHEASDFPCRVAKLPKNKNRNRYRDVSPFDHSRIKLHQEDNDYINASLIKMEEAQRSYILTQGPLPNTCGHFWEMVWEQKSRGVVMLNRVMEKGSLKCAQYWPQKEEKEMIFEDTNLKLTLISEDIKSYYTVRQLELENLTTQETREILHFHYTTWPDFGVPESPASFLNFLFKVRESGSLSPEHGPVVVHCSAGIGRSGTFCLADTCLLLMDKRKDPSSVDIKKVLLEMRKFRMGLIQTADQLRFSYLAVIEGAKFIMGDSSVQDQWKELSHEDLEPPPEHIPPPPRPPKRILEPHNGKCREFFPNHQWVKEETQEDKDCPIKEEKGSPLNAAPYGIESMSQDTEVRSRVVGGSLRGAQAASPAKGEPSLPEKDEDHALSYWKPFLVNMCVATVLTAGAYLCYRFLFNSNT
Description: (§1) A colorimetric assay to measure inhibition against PTP1B and TCPTP was performed in 96-well plates. […] Briefly, the tested compounds were solubilized in DMSO and serially diluted into concentrations for the inhibitory test.

[2] = target: T2, GST-TCPTP (Homo sapiens, UniProt P17706); assay: Colorimetric pNPP assay of inhibition against TCPTP
T2 sequence (P17706 1-415): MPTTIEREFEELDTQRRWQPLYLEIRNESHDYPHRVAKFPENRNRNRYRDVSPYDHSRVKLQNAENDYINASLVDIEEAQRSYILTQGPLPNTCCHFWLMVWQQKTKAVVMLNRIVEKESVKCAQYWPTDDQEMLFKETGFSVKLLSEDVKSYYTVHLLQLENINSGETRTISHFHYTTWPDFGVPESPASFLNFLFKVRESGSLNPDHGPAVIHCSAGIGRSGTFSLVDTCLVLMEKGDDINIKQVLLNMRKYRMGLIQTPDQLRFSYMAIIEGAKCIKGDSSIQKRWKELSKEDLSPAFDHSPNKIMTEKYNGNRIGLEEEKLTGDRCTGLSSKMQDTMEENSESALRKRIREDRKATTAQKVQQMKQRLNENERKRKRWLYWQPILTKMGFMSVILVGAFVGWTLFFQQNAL
Description: as §1

[3] = target: T3, PTP1B (Homo sapiens, UniProt P18031); assay: PTP1B enzyme kinetic study (Michaelis-Menten, Lineweaver-Burk plot); assay type: biochemical
T3 sequence (P18031 1-435): T1 sequence (P18031 1-435)

[4] = read-out: IC50 against PTP1B (Table 1)

| IC50 [1, 4] [µM] | IC50 [2] [µM] | TCPTP/PTP1B, the ratio of IC50 of TCPTP and PTP1B [1] | IC50 ([1]; read-out: IC50 PTP1B (Table 2)) [µM] | PTP1B inhibitory activity, fold higher than compound 18 ([1]; relative to compound 18) [fold] | Ki ([3]; 30 nM PTP1B, pNPP up to 80 mM, pH 6.5, read-out: inhibitory constant Ki) [µM] | Compound | mode of inhibition of PTP1B ([3]; Vmax constant, Km increased with compound concentration) |
| --- | --- | --- | --- | --- | --- | --- | --- |
| 6.33 ± 1.02 | 9.58 ± 0.33 | 1.5 |  |  |  | O=C(O)c1cccc(/C=C/c2ccc(OCc3cc(-c4ccccc4)on3)cc2)c1 [Compound 18, (E)-3-(4-((5-Phenylisoxazol-3-yl)methoxy)styryl)benzoic acid] |  |
|  | 7.58 ± 1.32 | 1.4 | 5.37 ± 1.53 |  |  | O=C(O)c1cccc(/C=C/c2ccc(OCc3cc(-c4cccc(Cl)c4)on3)cc2)c1 [Compound 21, (E)-3-(4-((5-(3-Chlorophenyl)isoxazol-3-yl)methoxy)styryl)benzoic acid] |  |
|  | > 40 |  | > 20 |  |  | O=C(O)c1cccc(/C=C/c2ccc(OCc3cc(-c4cccc(F)c4)on3)cc2)c1 [Compound 22, (E)-3-(4-((5-(3-Fluorophenyl)isoxazol-3-yl)methoxy)styryl)benzoic acid] |  |
|  | > 40 |  | 9.85 ± 2.04 |  |  | O=C(O)c1cccc(/C=C/c2ccc(OCc3cc(-c4cccc(Br)c4)on3)cc2)c1 [Compound 23, (E)-3-(4-((5-(3-Bromophenyl)isoxazol-3-yl)methoxy)styryl)benzoic acid] |  |
|  | 18.9 ± 1.18 | 5.1 | 3.68 ± 1.12 |  |  | Cc1cccc(-c2cc(COc3ccc(/C=C/c4cccc(C(=O)O)c4)cc3)no2)c1 [Compound 24, (E)-3-(4-((5-(m-Tolyl)isoxazol-3-yl)methoxy)styryl)benzoic acid] |  |
|  | 13.2 ± 1.7 | 6.5 | 2.05 ± 0.54 | 3 |  | O=C(O)c1cccc(/C=C/c2ccc(OCc3cc(-c4cccc([N+](=O)[O-])c4)on3)cc2)c1 [Compound 25, (E)-3-(4-((5-(3-Nitrophenyl)isoxazol-3-yl)methoxy)styryl)benzoic acid] |  |
|  | 5.19 ± 0.31 | 1.6 | 3.34 ± 0.81 |  |  | O=C(O)c1cccc(/C=C/c2ccc(OCc3cc(-c4ccc(F)cc4)on3)cc2)c1 [Compound 28, (E)-3-(4-((5-(4-Fluorophenyl)isoxazol-3-yl)methoxy)styryl)benzoic acid] |  |
|  | 3.78 ± 0.22 | 4.2 | 0.91 ± 0.33 |  | 0.78 | O=C(O)c1cccc(/C=C/c2ccc(OCc3cc(-c4ccc(Cl)c(Cl)c4)on3)cc2)c1 [Compound 29, (E)-3-(4-((5-(3,4-Dichlorophenyl)isoxazol-3-yl)methoxy)styryl)benzoic acid] | competitive PTP1B inhibitor; also recorded: competitive inhibition |
|  | 6.02 ± 1.13 | 4.9 | 1.22 ± 0.48 |  |  | O=C(O)c1cccc(/C=C/c2ccc(OCc3cc(-c4ccc(F)c(F)c4)on3)cc2)c1 [Compound 30, (E)-3-(4-((5-(3,4-Difluorophenyl)isoxazol-3-yl)methoxy)styryl)benzoic acid] |  |

Further lines, the molecule ahead of its results:

| Compound | IC50 [1, 4] [µM] | IC50 [2] [µM] | TCPTP/PTP1B, the ratio of IC50 of TCPTP and PTP1B [1] | IC50 ([1]; read-out: IC50 PTP1B (Table 2)) [µM] | PTP1B inhibitory activity, fold higher than compound 18 ([1]; relative to compound 18) [fold] | Ki ([3]; 30 nM PTP1B, pNPP up to 80 mM, pH 6.5, read-out: inhibitory constant Ki) [µM] | mode of inhibition of PTP1B ([3]; Vmax constant, Km increased with compound concentration) |
| --- | --- | --- | --- | --- | --- | --- | --- |
| O=C(O)c1cccc(/C=C/c2ccc(OCc3conc3-c3ccccc3)cc2)c1 [Compound 15, (E)-3-(4-((3-Phenylisoxazol-4-yl)methoxy)styryl)benzoic Acid] | 20.7 ± 3.83 |  |  |  |  |  |  |
| O=C(O)c1cccc(/C=C/c2ccc(OCc3cnoc3-c3ccccc3)cc2)c1 [Compound 16, (E)-3-(4-((5-Phenylisoxazol-4-yl)methoxy)styryl)benzoic acid] | 16.2 ± 4.52 |  |  |  |  |  |  |
| Cc1onc(-c2ccccc2)c1COc1ccc(/C=C/c2cccc(C(=O)O)c2)cc1 [Compound 17, (E)-3-(4-((5-Methyl-3-phenylisoxazol-4-yl)methoxy)styryl)benzoic acid] | 15.7 ± 2.15 |  |  |  |  |  |  |
| COC(=O)c1cccc(/C=C/c2ccc(OCc3cc(-c4ccccc4)on3)cc2)c1 [Compound 18d] | 23.7 ± 3.62 |  |  |  |  |  |  |
| O=C(O)c1cccc(/C=C/c2ccc(OCc3cc(-c4ccccc4Cl)on3)cc2)c1 [Compound 19, (E)-3-(4-((5-(2-Chlorophenyl)isoxazol-3-yl)methoxy)styryl)benzoic acid] |  | 36.2 ± 3.82 | 20.7 | 1.75 ± 0.82 |  |  |  |
| COc1ccccc1-c1cc(COc2ccc(/C=C/c3cccc(C(=O)O)c3)cc2)no1 [Compound 20, (E)-3-(4-((5-(2-Methoxyphenyl)isoxazol-3-yl)methoxy)styryl)benzoic acid] |  | > 40 |  | 7.66 ± 1.05 |  |  |  |
| Cc1ccc(-c2cc(COc3ccc(/C=C/c4cccc(C(=O)O)c4)cc3)no2)cc1 [Compound 26, (E)-3-(4-((5-(p-Tolyl)isoxazol-3-yl)methoxy)styryl)benzoic acid] |  | 7.67 ± 0.35 | 2.2 | 3.56 ± 0.28 |  |  |  |
| COc1ccc(-c2cc(COc3ccc(/C=C/c4cccc(C(=O)O)c4)cc3)no2)cc1 [Compound 27, (E)-3-(4-((5-(4-Methoxyphenyl)isoxazol-3-yl)methoxy)styryl)benzoic acid] |  | 8.02 ± 0.99 | 3.6 | 2.23 ± 0.51 |  |  |  |
| C[C@H](CCC(=O)O)[C@H]1CC[C@H]2[C@@H]3CC[C@@H]4C[C@H](O)CC[C@]4(C)[C@H]3CC[C@]12C [Lithocholic acid, lithocholic acid, reference compound] |  | 20.9 ± 3.66 | 1.7 | 12.5 ± 2.51 |  |  |  |
